Test results taken from patent US12109190B2, “Urolithins as immune response enhancers” (Amazentis SA, priority 2018, dated 2024).

How the values were obtained:
[1] = test system: haematopoietic stem cells (HSCs) and multipotent progenitor cells (MPPs); assay: Flow cytometry of bone marrow haematopoietic progenitor cell populations from aged mice fed Urolithin A; assay type: in vivo; conditions: aged C57BL/6J mice, 50 mg/kg/day in diet, 34 weeks; for HSC population as % of total bone marrow cells and number of cells: FIG. 4, versus untreated aged animals, cell number p<0.05, 50 mg/kg/day
Protocol: To determine if Urolithin A treatment had any effects on stem cell populations, haematopoietic stem cells, (HSCs) and multipotent progenitor cells (MPPs) were isolated from aged C57BL/6J mice that received either a standard rodent diet or a diet containing Urolithin A mixed with food to reach a dosing of 50 mg/kg/day delivered to mice. Mice were treated with urolithin A starting at 16 months of age and received 34 weeks of treatment. At end of the treatment period mice were sacrificed and bone marrow collected from the femur and tibia bones. Single-cell suspensions were made following cell extraction from the bones after removal of muscle and connective tissue.
To determine the effects of Urolithin A treatment on the different progenitor cells of the haematopoietic system, the number and percentage of each progenitor cell type was determined using flow cytometry. Flow cytometry allowed the selection and quantification of cells with different patterns of protein expression on their cell surface. Using labeled monoclonal antibodies, it was possible to identify the different progenitor cell population based on their cell surface protein expression. To isolate the undifferentiated cells which would contain the progenitor population, bone marrow cells were stained with a cocktail of monoclonal antibodies against the cell surface proteins specific to the more differentiated cell types. The antibodies to these proteins, also known as lineage markers were CD3e (17A2), CD4 (GK1.5), CD8a (53.6.7), CD11b (M1/70), CD19 (1D3), Gr1 (RB6.8C5), Ter119 and NK1.1 (PK136), these were conjugated to Alexa 647 [Alexa Fluor 647 dye is a bright, far-red—fluorescent dye used as a label in, for example, fluorescence microscopy]. To discriminate the various lineage progenitor cell populations the isolated bone marrow cells were stained with monoclonal antibodies against the following progenitor cell surface protein markers containing the following labels CD34 (RAM 34)-FITC; CD135 (Flt3 A2F10)-PE; CD48 (HM48.1)-biotin+PE Texas Red Streptavidin; CD117 (ckit 2B8) PerCp-Cy5.5; Sca1 (D7)-PE-Cy7. Cell analysis of the stained cells was performed on a Becton Dickson Flow cytometer (Franklin Lake, NJ, USA) and collected data was analyzed using Flowjo™ software (an analysis platform for single-cell flow cytometry analysis). Bone marrow was isolated from three mice receiving Urolithin A treatment, and six control untreated mice.
To identify the different populations of haematopoietic progenitor cells present in the isolated bone marrow cells, the isolated bone marrow cells were selected based on their cell surface marker combinations. A so-called gating strategy was employed, in which a particular population of cells is selected (gated) based on the pattern of cell surface protein expression, and then this sub-selected population then is further examined for its cell surface protein expression. […] Uncommitted progenitor cells were examined by selecting cells that were negative for the cell surface proteins found on differentiated cells (lineage markers) described above (FIG. 2B). From this population of lineage negative cells, cells were selected that stained positive for the cells surface markers, CD117 (c-kit) and Sca1. This subpopulation of lineage negative, CD117 & Sca1 positive cells (LKS cells) contain the progenitor stem cells (FIG. 2C).
LKS cells can be further divided into four different progenitor cell types, HSC (LT-HSC), MPP 1 (ST-HSC), MPP2, and MPP3 or LMPP with decreasing levels of quiescence (FIG. 1B). The most quiescent and non-committed cells are the HSC cells. To differentiate between these cell populations in the LKS cells, Cells were examined for their expression of CD150 and CD48. The most primitive quiescent cell populations, HSC+MPP1, are positive for the cell surface marker for CD150 and negative for the cell surface marker CD48. […]

[2] = test system: IL-10 / IL-12 (p40); assay: Plasma cytokines (MILLIPLEX panel) in aged mice after Urolithin A in diet; assay type: in vivo; conditions: 22 months old male C57BL/6J mice, 50 mg/kg/day in diet, 6 weeks; FIG. 6; p<0.05
Protocol: Urolithin A is admixed to AIN-93G Growing Rodent Diet (Research Diet, New Brunswick, NJ, USA) at a concentration of 0.5 g/per kg of diet, corresponding to a dose of 50 mg/kg/dy. Pellets with or without UA are given to 22 months old male C57BL/6J mice (Janvier, Saint Berthevin, France) for 6 weeks. A total of 32 mice are housed individually and randomized to 16 animals per group according to their exercise capacity. Animals who die spontaneously during the experiments are excluded from the calculations. These criteria were established before starting the experiments. Animals are euthanized after 6 weeks of treatment after an overnight fasting before collecting blood samples by the vena cava. Blood samples are centrifuged for 15 minutes at 1,500×g, and the plasma supernatant is transferred into a clean tube. Plasma is analyzed for cytokines using the MILLIPLEX MAP Mouse Cytokine/Chemokine Magnetic Bead Panel (MCYTOMAG-70K).
IL-10 is an important anti-inflammatory cytokine (Fiorentino D F, et al., IL-10 inhibits cytokine production by activated macrophages. J Immunol. 1991 Dec. 1; 147(11):3815-22; Fiorentino D F et al., IL-10 acts on the antigen-presenting cell to inhibit cytokine production by Th1 cells. J Immunol. 1991 May 15; 146(10):3444-51). […]

## O=c1oc2cc(O)ccc2c2ccc(O)cc12 [Urolithin A]
[1]
  HSC population as % of total bone marrow cells and number of cells: increase
[1]; listed as urolithin A
  HSC population as % of total bone marrow cells and number of cells: significant increase
[1]; bone marrow, example plot FIG. 2C, control 3.16%
  LSK (c-Kit+, Lin-, Sca1+) progenitor cells as % of lineage negative cells: 5.27%
[1]; example animal FIG. 3, untreated 53.1%
  % of LSK cells that are HSC+MPP1 (CD150+, CD48-): 61.7%
[1]; example animal FIG. 3, untreated 73.8%
  % of HSC+MPP1 cells that are HSC (CD34-): 81.7%
[1]; group value n=3, untreated 40.75 ± 7.42%, p < 0.01
  HSC + MPP1, % of undifferentiated cells (LSK cells): 58.97 ± 11.30%
[2]
  ratio of IL-10 over IL-12 (p40) in plasma: significant increase
